Results: ChEMBL document CHEMBL5696442, “Discovery of type II inhibitors of TGFβ-activated kinase 1 (TAK1) and mitogen-activated protein kinase kinase kinase kinase 2 (MAP4K2)” (J Med Chem, 2015)

Assays:
Format in all cases: cell-based
Ephrin type-A receptor 2 = Ephrin type-A receptor 2 (Homo sapiens, UniProt P29317); experiment: Inhibition of EphA2 ACT labeling site in human Huh-7 cells at 1 uM by KiNativ Profiling analysis relative to control
[1] = target: Serine/threonine-protein kinase 38 (Homo sapiens) (UniProt Q15208); experiment: Inhibition of NDR1 Lys1 labeling site in human A-375 cells at 5 uM by KiNativ Profiling analysis relative to control
[2] = target: Serine/threonine-protein kinase Nek6 (Homo sapiens) (UniProt Q9HC98); experiment: Inhibition of NEK6 Lys2 labeling site in human A-375 cells at 5 uM by KiNativ Profiling analysis relative to control
[3] = target: T1, Serine/threonine-protein kinase Nek9 (Homo sapiens) (UniProt Q8TD19); experiment: Inhibition of NEK9 Lys1 labeling site harbouring RTEDDSLVVWKEVDLTR in human A-375 cells at 5 uM by KiNativ Profiling analysis relative to control
T1 sequence (whole entry): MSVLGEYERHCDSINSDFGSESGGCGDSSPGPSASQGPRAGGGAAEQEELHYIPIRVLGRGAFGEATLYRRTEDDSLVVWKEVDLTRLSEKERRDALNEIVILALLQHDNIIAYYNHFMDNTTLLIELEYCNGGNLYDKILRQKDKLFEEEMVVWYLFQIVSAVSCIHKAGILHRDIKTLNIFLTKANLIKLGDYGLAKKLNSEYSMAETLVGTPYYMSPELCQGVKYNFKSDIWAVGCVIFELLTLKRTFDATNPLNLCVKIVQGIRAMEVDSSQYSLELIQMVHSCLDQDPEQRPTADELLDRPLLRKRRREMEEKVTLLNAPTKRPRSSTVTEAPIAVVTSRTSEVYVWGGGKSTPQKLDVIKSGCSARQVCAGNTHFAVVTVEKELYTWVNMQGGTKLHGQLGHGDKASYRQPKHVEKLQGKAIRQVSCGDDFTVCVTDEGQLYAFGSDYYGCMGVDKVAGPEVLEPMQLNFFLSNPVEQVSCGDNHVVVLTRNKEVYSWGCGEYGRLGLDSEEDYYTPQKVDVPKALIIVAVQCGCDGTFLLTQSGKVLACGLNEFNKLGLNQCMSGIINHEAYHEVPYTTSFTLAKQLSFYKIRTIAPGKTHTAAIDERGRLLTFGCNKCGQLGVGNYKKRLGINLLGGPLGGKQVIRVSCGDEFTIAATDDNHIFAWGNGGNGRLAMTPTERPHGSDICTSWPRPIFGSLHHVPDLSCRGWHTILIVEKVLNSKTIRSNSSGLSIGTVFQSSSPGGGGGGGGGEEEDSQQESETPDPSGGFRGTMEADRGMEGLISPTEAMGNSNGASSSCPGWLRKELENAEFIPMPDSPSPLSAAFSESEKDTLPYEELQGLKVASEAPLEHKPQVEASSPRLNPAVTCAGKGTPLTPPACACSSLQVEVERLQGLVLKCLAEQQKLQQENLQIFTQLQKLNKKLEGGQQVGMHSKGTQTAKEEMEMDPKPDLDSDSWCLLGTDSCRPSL

[4] = target: T2, Serine/threonine-protein kinase TAO3 (Homo sapiens) (UniProt Q9H2K8); experiment: Inhibition of TAO3 Lys2 labeling site in human A-375 cells at 0.5 uM by KiNativ Profiling analysis relative to control
T2 sequence (whole entry): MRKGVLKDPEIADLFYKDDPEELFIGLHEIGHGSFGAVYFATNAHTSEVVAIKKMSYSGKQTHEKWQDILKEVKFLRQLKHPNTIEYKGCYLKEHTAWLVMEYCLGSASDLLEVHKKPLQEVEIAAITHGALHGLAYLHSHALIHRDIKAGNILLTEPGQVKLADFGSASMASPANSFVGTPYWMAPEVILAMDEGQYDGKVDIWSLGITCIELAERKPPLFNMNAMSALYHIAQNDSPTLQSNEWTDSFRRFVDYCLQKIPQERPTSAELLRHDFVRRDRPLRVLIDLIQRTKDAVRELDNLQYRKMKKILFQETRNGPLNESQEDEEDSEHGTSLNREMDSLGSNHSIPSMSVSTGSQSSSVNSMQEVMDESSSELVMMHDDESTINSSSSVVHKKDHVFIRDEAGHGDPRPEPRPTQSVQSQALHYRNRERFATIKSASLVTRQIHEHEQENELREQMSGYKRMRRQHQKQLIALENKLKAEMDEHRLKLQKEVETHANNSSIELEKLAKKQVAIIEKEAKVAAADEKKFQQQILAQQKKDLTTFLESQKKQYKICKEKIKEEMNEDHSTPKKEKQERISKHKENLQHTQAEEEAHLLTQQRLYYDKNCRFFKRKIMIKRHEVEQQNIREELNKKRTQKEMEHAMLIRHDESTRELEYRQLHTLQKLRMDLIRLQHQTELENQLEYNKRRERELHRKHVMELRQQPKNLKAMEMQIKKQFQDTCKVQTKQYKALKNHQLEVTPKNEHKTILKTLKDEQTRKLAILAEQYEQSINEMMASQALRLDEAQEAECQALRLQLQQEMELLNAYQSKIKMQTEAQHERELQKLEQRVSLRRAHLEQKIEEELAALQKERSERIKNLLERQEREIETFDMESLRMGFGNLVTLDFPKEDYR

Serine/threonine-protein kinase Nek6 (Homo sapiens), sequence (Q9HC98 whole entry): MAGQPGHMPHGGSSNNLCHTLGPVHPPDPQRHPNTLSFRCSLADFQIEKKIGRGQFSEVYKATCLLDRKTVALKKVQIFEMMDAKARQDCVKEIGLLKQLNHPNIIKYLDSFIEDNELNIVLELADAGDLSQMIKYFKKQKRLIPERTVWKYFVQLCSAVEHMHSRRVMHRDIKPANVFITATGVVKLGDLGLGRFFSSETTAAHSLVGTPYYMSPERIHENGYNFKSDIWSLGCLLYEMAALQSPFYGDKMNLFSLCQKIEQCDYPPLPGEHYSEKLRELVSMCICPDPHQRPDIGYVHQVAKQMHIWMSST
Serine/threonine-protein kinase 38 (Homo sapiens), sequence (Q15208 2-465 limits assumed): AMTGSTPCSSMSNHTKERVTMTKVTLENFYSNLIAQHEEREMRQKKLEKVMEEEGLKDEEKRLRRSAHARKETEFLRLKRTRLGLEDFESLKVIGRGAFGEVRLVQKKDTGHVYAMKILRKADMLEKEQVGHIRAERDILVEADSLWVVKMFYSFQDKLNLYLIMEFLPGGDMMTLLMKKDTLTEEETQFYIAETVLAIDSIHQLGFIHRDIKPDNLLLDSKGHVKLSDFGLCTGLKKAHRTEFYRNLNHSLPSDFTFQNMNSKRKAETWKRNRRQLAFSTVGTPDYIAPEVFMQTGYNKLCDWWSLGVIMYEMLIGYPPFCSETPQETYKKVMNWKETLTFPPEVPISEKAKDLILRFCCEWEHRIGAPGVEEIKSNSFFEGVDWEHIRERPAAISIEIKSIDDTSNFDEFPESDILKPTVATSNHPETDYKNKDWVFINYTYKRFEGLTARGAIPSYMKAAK
Ephrin type-A receptor 2, sequence (P29317 whole entry): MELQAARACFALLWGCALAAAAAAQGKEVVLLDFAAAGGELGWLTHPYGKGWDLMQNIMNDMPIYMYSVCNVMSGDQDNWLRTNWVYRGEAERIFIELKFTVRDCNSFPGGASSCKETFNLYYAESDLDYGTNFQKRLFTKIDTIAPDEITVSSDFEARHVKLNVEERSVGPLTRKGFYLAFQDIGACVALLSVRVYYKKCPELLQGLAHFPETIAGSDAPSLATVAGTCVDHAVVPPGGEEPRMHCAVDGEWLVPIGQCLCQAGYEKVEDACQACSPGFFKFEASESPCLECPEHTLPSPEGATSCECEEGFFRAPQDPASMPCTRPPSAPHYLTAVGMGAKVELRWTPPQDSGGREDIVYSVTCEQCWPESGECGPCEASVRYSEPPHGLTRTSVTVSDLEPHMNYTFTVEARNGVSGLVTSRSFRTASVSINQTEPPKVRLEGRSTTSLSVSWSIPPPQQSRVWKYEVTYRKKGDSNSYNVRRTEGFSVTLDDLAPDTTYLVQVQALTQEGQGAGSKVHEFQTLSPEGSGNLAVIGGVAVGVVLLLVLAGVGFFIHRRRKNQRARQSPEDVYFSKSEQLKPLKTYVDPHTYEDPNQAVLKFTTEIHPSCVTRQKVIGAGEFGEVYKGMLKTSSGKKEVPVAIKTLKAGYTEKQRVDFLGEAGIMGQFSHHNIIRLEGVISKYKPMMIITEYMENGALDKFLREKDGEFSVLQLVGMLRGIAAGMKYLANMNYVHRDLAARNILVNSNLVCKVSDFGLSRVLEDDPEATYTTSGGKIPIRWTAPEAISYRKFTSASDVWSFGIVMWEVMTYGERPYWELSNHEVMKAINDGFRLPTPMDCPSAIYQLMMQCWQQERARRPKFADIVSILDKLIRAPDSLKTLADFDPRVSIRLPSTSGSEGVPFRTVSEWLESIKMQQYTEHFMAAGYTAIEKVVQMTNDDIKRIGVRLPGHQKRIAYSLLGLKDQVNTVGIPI

CNc1cc(Oc2cc(C(=O)Nc3cc(N4CCN(C)CC4)cc(C(F)(F)F)c3)ccc2C)ncn1
inhibition (Ephrin type-A receptor 2): 69.2%

CCN1CCN(Cc2ccc(NC(=O)c3ccc(C)c(Oc4ccnc5[nH]ccc45)c3)cc2C(F)(F)F)CC1
inhibition [1]: -0.8% | inhibition [2]: 6.4% | inhibition [3]: -3.9% | inhibition [4]: -5.6% | inhibition (Ephrin type-A receptor 2): 16.1%

CCN1CCN(Cc2ccc(NC(=O)c3ccc(C)c(/C=C/c4cnc5[nH]ccc5c4OC)c3)cc2C(F)(F)F)CC1
inhibition [1]: 3.3% | inhibition [2]: 3.1% | inhibition [3]: 21% | inhibition [4]: 6.6%
